# According to patent publication US6352958B1, “Cycloimido-substituted benzofused heterocyclic herbicides” (FMC Corporation, priority 1997, dated 2002):
# What was measured:
# Format in all cases: in vivo
# [1] = test system: soybean (Glycine max var. Winchester); test: Preemergence herbicidal activity, soybean; details: Rate of Application 0.3 Kg/Ha, examined after 12-17 days
# [2] = test system: wheat (Triticum aestivum var. Lew); test: Preemergence herbicidal activity, wheat; details: Rate of Application 0.3 Kg/Ha, examined after 12-17 days
# [3] = test system: field corn (Zea mays var. Pioneer 3732); test: Preemergence herbicidal activity, corn; details: Rate of Application 0.3 Kg/Ha, examined after 12-17 days
# [4] = test system: velvetleaf (Abutilon theophrasti); test: Preemergence herbicidal activity, velvetleaf; details: Rate of Application 0.3 Kg/Ha, examined after 12-17 days
# [5] = test system: morningglory (Ipomea lacunosa or Ipomea hederacea); test: Preemergence herbicidal activity, morningglory; details: Rate of Application 0.3 Kg/Ha, examined after 12-17 days
# [6] = test system: common chickweed (Stellaria media); test: Preemergence herbicidal activity, chickweed; details: Rate of Application 0.3 Kg/Ha, examined after 12-17 days
# [7] = test system: blackgrass (Aloepecurus myosuroides); test: Preemergence herbicidal activity, blackgrass; details: Rate of Application 0.3 Kg/Ha, examined after 12-17 days
# Protocol: The benzofused heterocyclic compounds of this invention were tested for pre- and postemergence herbicidal activity using a variety of crops and weeds. The test plants included soybean (Glycine max var. Winchester), field corn (Zea mays var. Pioneer 3732), wheat (Triticum aestivum var. Lew), morningglory (Ipomea lacunosa or Ipomea hederacea), velvetleaf (Abutilon theophrasti), green foxtail (Setaria viridis), Johnsongrass (Sorghum halepense), blackgrass (Aloepecurus myosuroides), common chickweed (Stellaria media), and common cocklebur (Xanthium strumarium L.).
# For preemergence testing, two disposable fiber flats (8 cm×15 cm×25 cm) for each rate of application of each candidate herbicide were filled to an approximate depth of 6.5 cm with steam-sterilized sandy loam soil. The soil was leveled and impressed with a template to provide five evenly spaced furrows 13 cm long and 0.5 cm deep in each flat. Seeds of soybean, wheat, corn, green foxtail, and johnsongrass were planted in the furrows of the first flat, and seeds of velvetleaf, morningglory, common chickweed, cocklebur, and blackgrass were planted in the furrows of the second flat. The five-row template was employed to firmly press the seeds into place. A topping soil of equal portions of sand and sandy loam soil was placed uniformly on top of each flat to a depth of approximately 0.5 cm. Flats for postemergence testing were prepared in the same manner except that they were planted 9-14 days prior to the preemergence flats and were placed in a greenhouse and watered, thus allowing the seeds to germinate and the foliage to develop.
# In both pre- and postemergence tests, a stock solution of the candidate herbicide was prepared by dissolving 0.27 g of the compound in 20 mL of water/acetone (50/50) containing 0.5% v/v sorbitan monolaurate. For an application rate of 3000 g/ha of herbicide a 10 mL portion of the stock solution was diluted with water/acetone (50/50) to 45 mL.
# The preemergence flats were initially subjected to a light water spray. The four flats were placed two by two along a conveyor belt (i.e., the two preemergence followed by the two postemergence flats). The conveyor belt fed under a spray nozzle mounted about ten inches above the post-emergent foliage. The preemergent flats were elevated on the belt so that the soil surface was at the same level below the spray nozzle as the foliage canopy of the postemergent plants. The spray of herbicidal solution was commenced and once stabilized, the flats were passed under the spray at a speed to receive a coverage equivalent of 100 L/ha. At this coverage the application rates are those shown in the above table for the individual herbicidal solutions. The preemergence flats were watered immediately thereafter, placed in the greenhouse and watered regularly at the soil surface. The postemergence flats were immediately placed in the green-house and not watered until 24 hours after treatment with the test solution. Thereafter they were regularly watered at ground level. After 12-17 days the plants were examined and the phytotoxicity data were recorded.
# Phytotoxicity data were taken as percent control. Percent control was determined by a method similar to the 0 to 100 rating system disclosed in “Research Methods in Weed Science,” 2nd ed., B. Truelove, Ed.; Southern Weed Science Society; Auburn University, Auburn, Ala., 1977.
# [8] = test system: green foxtail (Setaria viridis); test: Preemergence herbicidal activity, green foxtail; details: Rate of Application 0.3 Kg/Ha, examined after 12-17 days
# [9] = test system: Johnsongrass (Sorghum halepense); test: Preemergence herbicidal activity, johnsongrass; details: Rate of Application 0.3 Kg/Ha, examined after 12-17 days
# [10] = test system: soybean (Glycine max var. Winchester); test: Postemergence herbicidal activity, soybean; details: rate of application 0.3 Kg/Ha, rated after 12-17 days
# [11] = test system: wheat (Triticum aestivum var. Lew); test: Postemergence herbicidal activity, wheat; details: rate of application 0.3 Kg/Ha, rated after 12-17 days
# [12] = test system: field corn (Zea mays var. Pioneer 3732); test: Postemergence herbicidal activity, corn; details: rate of application 0.3 Kg/Ha, rated after 12-17 days
# [13] = test system: velvetleaf (Abutilon theophrasti); test: Postemergence herbicidal activity, velvetleaf; details: rate of application 0.3 Kg/Ha, rated after 12-17 days
# [14] = test system: morningglory (Ipomea lacunosa or Ipomea hederacea); test: Postemergence herbicidal activity, morningglory; details: rate of application 0.3 Kg/Ha, rated after 12-17 days
# [15] = test system: common chickweed (Stellaria media); test: Postemergence herbicidal activity, chickweed; details: rate of application 0.3 Kg/Ha, rated after 12-17 days
# [16] = test system: common cocklebur (Xanthium strumarium L.); test: Postemergence herbicidal activity, cocklebur; details: rate of application 0.3 Kg/Ha, rated after 12-17 days
# [17] = test system: green foxtail (Setaria viridis); test: Postemergence herbicidal activity, green foxtail; details: rate of application 0.3 Kg/Ha, rated after 12-17 days
# [18] = test system: Johnsongrass (Sorghum halepense); test: Postemergence herbicidal activity, johnsongrass; details: rate of application 0.3 Kg/Ha, rated after 12-17 days
# [19] = test system: common cocklebur (Xanthium strumarium L.); test: Preemergence herbicidal activity, cocklebur; details: Rate of Application 0.3 Kg/Ha, examined after 12-17 days
SMILES,PREEMERGENCE HERBICIDAL ACTIVITY (% CONTROL) SOY [1] [%],PREEMERGENCE HERBICIDAL ACTIVITY (% CONTROL) WHT [2] [%],PREEMERGENCE HERBICIDAL ACTIVITY (% CONTROL) CRN [3] [%],PREEMERGENCE HERBICIDAL ACTIVITY (% CONTROL) ABUTH [4] [%],PREEMERGENCE HERBICIDAL ACTIVITY (% CONTROL) IPOSS [5] [%],PREEMERGENCE HERBICIDAL ACTIVITY (% CONTROL) STEME [6] [%],PREEMERGENCE HERBICIDAL ACTIVITY (% CONTROL) ALOMY [7] [%],PREEMERGENCE HERBICIDAL ACTIVITY (% CONTROL) SETVI [8] [%],PREEMERGENCE HERBICIDAL ACTIVITY (% CONTROL) SORHA [9] [%],Postemergence herbicidal activity (% control) SOY [10] [%],Postemergence herbicidal activity (% control) WHT [11] [%],Postemergence herbicidal activity (% control) CRN [12] [%],Postemergence herbicidal activity (% control) ABUTH [13] [%],Postemergence herbicidal activity (% control) IPOSS [14] [%],Postemergence herbicidal activity (% control) STEME [15] [%],Postemergence herbicidal activity (% control) XANPE [16] [%],Postemergence herbicidal activity (% control) SETVI [17] [%],Postemergence herbicidal activity (% control) SORHA [18] [%],PREEMERGENCE HERBICIDAL ACTIVITY (% CONTROL) XANPE [19] [%]
CC(=O)Nc1nc2c(-n3c(=O)cc(C(F)(F)F)n(C)c3=O)c(F)cc(Br)c2o1 [Compound 43],50,40,80,100,100,10,60,70,80,80,30,70,100,100,70,50,50,50,–
CC(=O)OC(C)c1cc2c(Cl)cc(F)c(-n3c(=O)cc(C(F)(F)F)n(C)c3=O)c2o1 (stereo not drawn) [Compound 246],100,100,100,100,100,100,100,100,100,95,100,100,100,100,100,100,100,100,100
CC(=O)OC(C)(C)c1nc2c(-n3c(=O)cc(C(F)(F)F)n(C)c3=O)c(F)cc(Cl)c2[nH]1 [Compound 371],100,95,100,100,100,100,100,100,100,95,100,100,100,100,100,100,100,100,100
CC(=O)N(C(C)=O)c1nc2c(-n3c(=O)cc(C(F)(F)F)n(C)c3=O)c(F)cc(Br)c2o1 [Compound 100],40,30,80,100,100,20,60,50,70,85,40,60,90,100,50,50,30,40,–
Cn1c(C(F)(F)F)cc(=O)n(-c2c(F)cc(Cl)c3[nH]c(C(F)F)nc23)c1=O [Compound 364],100,60,80,100,100,100,80,100,80,95,40,80,100,100,100,100,100,100,100
COCc1nc2c(-n3c(=O)cc(C(F)(F)F)n(C)c3=O)c(F)cc(Br)c2o1 [Compound 96],100,90,95,100,100,100,90,100,95,100,90,90,100,100,100,100,100,100,–
Cn1c(C(F)(F)F)cc(=O)n(-c2c(F)cc(Br)c3oc(COc4ccccc4)nc23)c1=O [Compound 99],40,50,60,100,100,100,60,100,65,80,40,80,100,100,95,70,70,65,–
